Read-outs that look alike come from different tables or passages of the source.
How the values were obtained:
[1] = molecular target: T1, PKC β II (Homo sapiens, UniProt P05771); assay: PKC enzyme assay (BIOTRAK Protein kinase C enzyme assay system, 32P-ATP phosphorylation of peptide […]); assay type: biochemical; settings: for Ratio α/β: IC50 PKC α / IC50 PKC β II
T1 construct: purchased CALBIOCHEM
From the text: The method for determining the PKC inhibitory activity of the compound of the present invention is explained in the following. Inasmuch as PKCβII is present in greater number in intravascular cells than PKCβI, PKCβII was mainly used here to test the enzyme activity.
(§1) As the reagent for enzyme assay, BIOTRAK Protein kinase C enzyme assay system (hereinafter the system, Amersham), and as the PKC enzyme standard product, Protein Kinase C, Human Recombinant (CALBIOCHEM) were purchased and used in the assay. A substrate mixture was prepared by mixing calcium buffer (12 mM calcium acetate, 50 mM Tris/HCl pH 7.5, 0.05% (w/v) sodium azide), Lipid (0.3 mg/ml La-phosphatidyl-L-serine, […] phorbol 12-myristate 13-acetate, 50 mM Tris/HCl pH 7.5, 0.05% (w/v) sodium azide), peptide buffer (900 µM peptide […]), 50 mM Tris/HCl pH 7.5, 0.05% (w/v) sodium azide), DTT buffer (30 mM dithiothreitol, 50 mM Tris/HCl pH 7.5, 0.05% (w/v) sodium azide), and magnesium ATP buffer (1.2 mM ATP, […] pH 7.4, 72 mM magnesium chloride) all attached to the system in a ratio of 1:1:1:1:0.8 and adding [ y -32P]ATP (Amersham, cat. […] The PKC enzyme standard product was diluted with an assay buffer (10 mM Hepes pH 7.4, 0.01% Triton X-100) to a concentration of 400 ng/ml and used as the enzyme solution. The substrate mixture and a test substance (diluted to the final concentration of 1 nM-10 µM with dimethyl sulfoxide (DMSO)) were mixed at a ratio of 20:1. The enzyme solution was added in the amount equivalent to the substrate mixture and mixed, which was followed by incubation at 37°C for 15 minutes. The reaction terminator (300 mM orthophosphoric acid containing carmosine red) attached to the system was added in the amount equivalent to the substrate mixture to end the reaction, and the reaction mixture was spotted on a phosphocellulose paper (Whatman, P-81), washed twice with 75 mM orthophosphoric acid and assayed for radioactivity by BAS2000 (Fuji film).
(§2) The ratio of the radioactivity of the addition of the test substance to the addition of DMSO was determined, and IC50 was calculated from inhibition at each concentration.

[2] = molecular target: T2, PKC α (Homo sapiens, UniProt P17252); assay: as above; assay type: biochemical; settings: Protein Kinase C, Human Recombinant; test substance 1 nM-10 µM; 37°C, 15 minutes; read-out: Inhibition of PKC activity IC50 PKC α
T2 construct: purchased CALBIOCHEM
Protocol: as §1, §2

[3] = Protein Kinase C, Human Recombinant, test substance 1 nM-10 µM, 37°C, 15 minutes, read-out: Inhibition of PKC activity IC50 PKC β II

T1 sequence (P05771 other isoform, or with tags, fused parts or gaps): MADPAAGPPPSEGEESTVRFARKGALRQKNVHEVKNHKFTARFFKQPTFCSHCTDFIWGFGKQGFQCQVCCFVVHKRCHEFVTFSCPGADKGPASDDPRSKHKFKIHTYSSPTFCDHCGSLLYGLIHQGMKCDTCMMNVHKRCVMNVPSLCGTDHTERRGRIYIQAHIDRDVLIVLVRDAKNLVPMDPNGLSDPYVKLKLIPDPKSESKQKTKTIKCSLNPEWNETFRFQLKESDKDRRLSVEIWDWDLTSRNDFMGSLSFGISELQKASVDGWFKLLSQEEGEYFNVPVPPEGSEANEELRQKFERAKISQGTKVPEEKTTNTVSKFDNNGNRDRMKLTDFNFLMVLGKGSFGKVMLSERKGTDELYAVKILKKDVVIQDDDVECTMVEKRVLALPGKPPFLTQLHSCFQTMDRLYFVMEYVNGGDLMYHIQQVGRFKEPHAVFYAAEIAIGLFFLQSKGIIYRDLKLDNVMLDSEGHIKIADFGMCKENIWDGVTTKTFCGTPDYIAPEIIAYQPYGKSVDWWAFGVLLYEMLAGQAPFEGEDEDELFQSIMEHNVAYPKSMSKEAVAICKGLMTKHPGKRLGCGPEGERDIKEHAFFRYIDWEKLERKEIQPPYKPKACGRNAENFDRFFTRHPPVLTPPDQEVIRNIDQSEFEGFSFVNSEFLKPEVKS

Molecule	Ratio α/β [1]	IC50 [1, 3] [nM]	IC50 [2] [nM]	IC50 [1] [nM]
3-[(3-chlorophenyl)amino]-4-[1-{3-(4-hydroxymethyl-imidazol-1-yl)propyl}-1H-indol-3-yl]-1H-pyrrole-2,5-dione and 3-[(3-chlorophenyl)amino]-4-[1-{3-(5-hydroxymethyl-imidazol-1-yl)propyl}-1H-indol-3-yl]-1H-pyrrole-2,5-dione [Example 2-60]	48	16	762	–
O=C1NC(=O)C(c2c[nH]c3ccccc23)=C1Nc1ccccc1 [Example 1-2, 3-(1H-indol-3-yl)-4-(phenylamino)-1H-pyrrole-2,5-dione]	–	223	7230	–
Cc1cccc(NC2=C(c3c[nH]c4ccccc34)C(=O)NC2=O)c1 [Example 1-5, 3-(1H-indol-3-yl)-4-[(3-methylphenyl)amino]-1H-pyrrole-2,5-dione]	33	151	4920	–
O=C1NC(=O)C(c2c[nH]c3ccccc23)=C1Nc1cccc(Cl)c1 [Example 1-6, 3-[(3-chlorophenyl)amino]-4-(1H-indol-3-yl)-1H-pyrrole-2,5-dione]	35	198	6910	–
O=C1NC(=O)C(c2c[nH]c3ccccc23)=C1Nc1cccc(Br)c1 [Example 1-10, 3-[(3-bromophenyl)amino]-4-(1H-indol-3-yl)-1H-pyrrole-2,5-dione]	37	226	8340	–
O=C1NC(=O)C(c2c[nH]c3ccccc23)=C1Nc1cccc(F)c1 [Example 1-12, 3-[(3-fluorophenyl)amino]-4-(1H-indol-3-yl)-1H-pyrrole-2,5-dione]	29	249	7160	–
O=C1NC(=O)C(c2cn(CCCO)c3ccccc23)=C1Nc1ccccc1 [Example 2-1, 3-[1-(3-hydroxypropyl)-1H-indol-3-yl]-4-(phenylamino)-1H-pyrrole-2,5-dione]	54	30	1620	–
Cc1cccc(NC2=C(c3cn(CCCO)c4ccccc34)C(=O)NC2=O)c1 [Example 2-2, 3-[1-(3-hydroxypropyl)-1H-indol-3-yl]-4-[(3-methylphenyl)amino]-1H-pyrrole-2,5-dione]	70	41	2860	–
O=C1NC(=O)C(c2cn(CCCO)c3ccccc23)=C1Nc1cccc(Cl)c1 [Example 2-3, 3-[(3-chlorophenyl)amino]-4-[1-(3-hydroxypropyl)-1H-indol-3-yl]-1H-pyrrole-2,5-dione]	85	46	3900	–
O=C1NC(=O)C(c2cn(CCO)c3ccccc23)=C1Nc1ccccc1 [Example 2-4, 3-[1-(2-hydroxyethyl)-1H-indol-3-yl]-4-(phenylamino)-1H-pyrrole-2,5-dione]	79	73	5800	–
O=C1NC(=O)C(c2cn(CCCCO)c3ccccc23)=C1Nc1ccccc1 [Example 2-5, 3-[1-(4-hydroxybutyl)-1H-indol-3-yl]-4-(phenylamino)-1H-pyrrole-2,5-dione]	61	30	1830	–
O=C1NC(=O)C(c2cn(CCCO)c3ccccc23)=C1Nc1ccc(Cl)c(Cl)c1 [Example 2-6, 3-[(3,4-dichlorophenyl)amino]-4-[1-(3-hydroxypropyl)-1H-indol-3-yl]-1H-pyrrole-2,5-dione]	55	60	3310	–
CC(=O)OCCn1cc(C2=C(Nc3ccccc3)C(=O)NC2=O)c2ccccc21 [Example 2-7, 3-[1-(2-acetoxyethyl)-1H-indol-3-yl]-4-(phenylamino)-1H-pyrrole-2,5-dione]	57	56	3170	–
CN(C)CCCn1cc(C2=C(Nc3ccccc3)C(=O)NC2=O)c2ccccc21 [Example 2-8, 3-[1-(3-dimethylaminopropyl)-1H-indol-3-yl]-4-(phenylamino)-1H-pyrrole-2,5-dione]	38	12	460	–
CN(C)CCn1cc(C2=C(Nc3ccccc3)C(=O)NC2=O)c2ccccc21 [Example 2-9, 3-[1-(2-dimethylaminoethyl)-1H-indol-3-yl]-4-(phenylamino)-1H-pyrrole-2,5-dione]	77	28	2160	–
CN(C)CCCCn1cc(C2=C(Nc3ccccc3)C(=O)NC2=O)c2ccccc21 [Example 2-10, 3-[1-(4-dimethylaminobutyl)-1H-indol-3-yl]-4-(phenylamino)-1H-pyrrole-2,5-dione]	49	15	730	–
Cc1cccc(NC2=C(c3cn(CCCN(C)C)c4ccccc34)C(=O)NC2=O)c1 [Example 2-11, 3-[1-(3-dimethylaminopropyl)-1H-indol-3-yl]-4-[(3-methylphenyl)amino]-1H-pyrrole-2,5-dione]	49	15	727	–
CN(C)CCCn1cc(C2=C(Nc3cccc(Cl)c3)C(=O)NC2=O)c2ccccc21 [Example 2-12, 3-[1-(3-dimethylaminopropyl)-1H-indol-3-yl]-4-[(3-chlorophenyl)amino]-1H-pyrrole-2,5-dione]	56	10	558	–
CCN(CC)CCCn1cc(C2=C(Nc3ccccc3)C(=O)NC2=O)c2ccccc21 [Example 2-13, 3-[1-(3-diethylaminopropyl)-1H-indol-3-yl]-4-(phenylamino)-1H-pyrrole-2,5-dione]	60	21	1260	–
CN(C)CCN(C)CCCn1cc(C2=C(Nc3ccccc3)C(=O)NC2=O)c2ccccc21 [Example 2-14, 3-[1-{3-[N-(2-dimethylaminoethyl)-N-methylamino)propyl}-1H-indol-3-yl]-4-(phenylamino)-1H-pyrrole-2,5-dione]	70	40	2790	–
CCN(CCCn1cc(C2=C(Nc3ccccc3)C(=O)NC2=O)c2ccccc21)CCOC [Example 2-15, 3-[1-{3-[N-ethyl-N-(2-methoxyethyl)amino]propyl}-1H-indol-3-yl]-4-(phenylamino)-1H-pyrrole-2,5-dione]	77	35	2680	–
CN(C)CCN(C)CCn1cc(C2=C(Nc3ccccc3)C(=O)NC2=O)c2ccccc21 [Example 2-16, 3-[1-{2-[N-(2-dimethylaminoethyl)-N-methylamino]ethyl}-1H-indol-3-yl]-4-(phenylamino)-1H-pyrrole-2,5-dione]	79	80	6290	–
CCN(CCCn1cc(C2=C(Nc3ccccc3)C(=O)NC2=O)c2ccccc21)Cc1ccccc1 [Example 2-17, 3-[1-{3-(N-benzyl-N-ethylamino)propyl}-1H-indol-3-yl)-4-(phenylamino)-1H-pyrrole-2,5-dione]	45	103	4630	–
CCN(CCCn1cc(C2=C(Nc3ccccc3)C(=O)NC2=O)c2ccccc21)Cc1ccncc1 [Example 2-18, 3-[1-{3-[N-ethyl-N-(4-pyridylmethyl)amino]propyl}-1H-indol-3-yl]-4-(phenylamino)-1H-pyrrole-2,5-dione]	41	183	7530	–
O=C1NC(=O)C(c2cn(CCCN3CCOCC3)c3ccccc23)=C1Nc1ccccc1 [Example 2-19, 3-[1-(3-morpholinopropyl)-1H-indol-3-yl]-4-(phenylamino)-1H-pyrrole-2,5-dione]	72	17	1230	–
O=C1NC(=O)C(c2cn(CCCN3CCCCC3)c3ccccc23)=C1Nc1ccccc1 [Example 2-20, 3-[1-(3-piperidinopropyl)-1H-indol-3-yl]-4-(phenylamino)-1H-pyrrole-2,5-dione]	–	17	726	–
O=C1NC(=O)C(c2cn(CCCN3CCSCC3)c3ccccc23)=C1Nc1ccccc1 [Example 2-21, 3-(phenylamino)-4-[1-(3-thiomorpholinopropyl)-1H-indol-3-yl]-1H-pyrrole-2,5-dione]	46	17	773	–
O=C1NC(=O)C(c2cn(CCCN3CCCCCC3)c3ccccc23)=C1Nc1ccccc1 [Example 2-23, 3-[1-(3-azacycloheptan-1-ylpropyl)-1H-indol-3-yl]-4-(phenylamino)-1H-pyrrole-2,5-dione]	–	–	–	10
